Assay [1] has as its target Type-1 angiotensin II receptor (Homo sapiens, UniProt P30556). The assay is described as follows: AT1 receptor agonists, dose response, selectivity assay for APJ receptor agonist project, cell-based, uHTS hits (AID 488865).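 Further: beta-arrestin recruitment to AT1 measured by enzyme fragment complementation luminescence.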 Format: functional.
In assay [2] the target is T1, Cannabinoid receptor 1 (Homo sapiens, UniProt P21554). The assay is described as follows: SAR analysis of agonists of the Cannabinoid Receptor 1 using an Image-Based Assay - Set 4. [Related pubchem assays (depositor defined):AID2013, AID2026]. Format: functional.
Assay [3] concerns the target T2, G-protein coupled receptor 35 (Homo sapiens, UniProt Q9HC97). The assay is described as follows: SAR analysis of Antagonists of the GPR35 Receptor using an Image-Based Assay - Set 6. [Related pubchem assays (depositor defined):AID2013, AID2026]. Format: functional.
In assay [4] the target is T2, G-protein coupled receptor 35. In words: SAR analysis of Agonists of the GPR35 Receptor using an Image-Based Assay - Set 4. [Related pubchem assays (depositor defined):AID2013, AID2026]. The assay is classed as functional.
The target in assay [5] is T3, Cannabinoid receptor 2 (Homo sapiens, UniProt P34972). In words: SAR analysis of agonists of the Cannabinoid Receptor 2 using an Image-Based Assay - Set 3. [Related pubchem assays (depositor defined):AID2013, AID2026]. Format: functional.
In assay [6] the target is G-protein coupled receptor 55 (Homo sapiens, UniProt Q9Y2T6). The assay is described as follows: SAR Analysis of Selective Antagonists of GPR55 using an Image-Based Assay - Set 4. [Related pubchem assays (depositor defined):AID2013, AID2026]. The assay is classed as functional.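 Further: antagonism of response to 5 µM lysophosphatidylinositol agonist.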
Assay [7] addresses T1, Cannabinoid receptor 1. The assay is described as follows: SAR analysis of antagonists of the Cannabinoid Receptor 1 using an Image-Based Assay - Set 4. [Related pubchem assays (depositor defined):AID2013, AID2026]. The assay is classed as functional.
Assay [8] has as its target T3, Cannabinoid receptor 2. In words: SAR analysis of antagonists of the Cannabinoid Receptor 2 using an Image-Based Assay - Set 3. [Related pubchem assays (depositor defined):AID2013, AID2026]. Format: functional.
The nature of assay [9]: inhibitors of firefly luciferase expression or activity, dose response, H4 neuroglioma cells, luminescence (AID 1990). Format: functional, cell-based.
Assay [10] can be described thus: Luminescence Cell-Based Dose HTS Response to Identify Inhibitors of 5'UTR Stem-Loop Driven Prion Protein mRNA Translation in H4-C Neuroglioblastoma Cells. [Related pubchem assays (depositor defined):AID1814, AID1827]. The assay is classed as functional.
A short description of assay [11]: Luminescence Cell-Based Dose Retest to Confirm Activators of 5'UTR Stem-Loop Driven Alpha-Synuclein mRNA Translation in H4 Neuroglioblastoma Cells. [Related pubchem assays (depositor defined):AID1813, AID1829]. The assay is classed as functional.
Assay [12] is described as follows: Luminescence Cell-Based Dose Response HTS to Identify Inhibitors of Luciferase Translation or Activity in H4-C Neuroglioblastoma Cells. [Related pubchem assays: 1813 (Primary HTS), 1827 (Project Summary)]. The assay is classed as functional.
The nature of assay [13]: Luminescence Cell-Based Dose Response HTS to Identify Activators of Luciferase Translation or Activity in H4-C Neuroglioblastoma Cells. [Related pubchem assays: 1829 (Project Summary), 1814 (Primary HTS)]. Format: functional.
A short description of assay [14]: Luminescence Cell-Based Dose Response HTS to Identify Activators of 5'UTR Stem-Loop Driven Prion Protein mRNA Translation in H4-C Neuroglioblastoma Cells. [Related pubchem assays: 1829 (Project Summary), 1814 (Primary HTS)]. Format: functional.
Assay [15] in a line: inhibitors of SNCA 5'UTR-driven reporter translation, confirmation, H4 neuroglioma cells, luminescence (AID 1988). The assay is classed as functional, cell-based.
The nature of assay [16]: Luminescence Cell-Based Dose Response HTS to Identify Inhibitors of 5'UTR Stem-Loop Driven Prion Protein mRNA Translation in H4 Neuroglioblastoma Cells. [Related pubchem assays: 1827 (Project Summary), 1813 (Primary HTS)]. The assay is classed as functional.
Assay [17] in a line: Luminescence Cell-Based Dose Confirmation HTS to Identify Inhibitors of 5'UTR Stem-Loop Driven Alpha-Synuclein mRNA Translation in H4 Neuroglioblastoma Cells. [Related pubchem assays: 1827 (Project Summary), 1813 (Primary HTS)]. Format: functional.

Calls of active or inactive are those of the source.

Usually EC50 stands for the concentration at which the effect is half-maximal. For orientation: IC50 means the midpoint of a concentration-inhibition curve.

T3 sequence (P34972 whole entry): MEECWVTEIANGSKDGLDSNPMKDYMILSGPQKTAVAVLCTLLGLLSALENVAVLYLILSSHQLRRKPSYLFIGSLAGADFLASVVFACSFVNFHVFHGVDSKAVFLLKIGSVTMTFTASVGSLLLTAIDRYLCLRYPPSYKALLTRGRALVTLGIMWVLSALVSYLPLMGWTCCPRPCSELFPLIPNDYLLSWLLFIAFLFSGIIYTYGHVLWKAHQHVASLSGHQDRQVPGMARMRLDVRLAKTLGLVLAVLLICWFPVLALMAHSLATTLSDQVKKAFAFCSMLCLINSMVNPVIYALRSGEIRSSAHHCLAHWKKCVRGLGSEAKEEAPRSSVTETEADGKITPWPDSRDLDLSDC
T1 sequence (P21554 whole entry): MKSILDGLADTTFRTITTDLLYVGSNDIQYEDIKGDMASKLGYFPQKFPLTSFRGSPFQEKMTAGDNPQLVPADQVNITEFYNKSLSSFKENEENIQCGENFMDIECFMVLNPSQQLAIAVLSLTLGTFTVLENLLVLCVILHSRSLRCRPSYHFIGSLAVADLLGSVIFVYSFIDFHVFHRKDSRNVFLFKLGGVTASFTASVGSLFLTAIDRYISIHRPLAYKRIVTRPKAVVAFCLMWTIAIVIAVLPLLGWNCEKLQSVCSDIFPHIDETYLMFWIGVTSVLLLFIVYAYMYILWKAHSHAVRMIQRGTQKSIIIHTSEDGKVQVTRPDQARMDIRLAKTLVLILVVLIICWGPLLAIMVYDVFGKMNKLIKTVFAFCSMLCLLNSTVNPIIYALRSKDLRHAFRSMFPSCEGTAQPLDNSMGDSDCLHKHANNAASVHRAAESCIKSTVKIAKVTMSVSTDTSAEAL
T2 sequence (Q9HC97 whole entry): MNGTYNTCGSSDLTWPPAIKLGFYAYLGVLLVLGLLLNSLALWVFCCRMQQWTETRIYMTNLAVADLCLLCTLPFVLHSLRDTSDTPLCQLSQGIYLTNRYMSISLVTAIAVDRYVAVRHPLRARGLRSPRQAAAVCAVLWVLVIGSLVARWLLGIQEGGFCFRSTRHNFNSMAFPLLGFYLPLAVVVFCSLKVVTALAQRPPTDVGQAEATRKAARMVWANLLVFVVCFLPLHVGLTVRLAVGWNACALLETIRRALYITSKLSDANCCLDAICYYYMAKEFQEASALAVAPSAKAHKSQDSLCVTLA
Chain of G-protein coupled receptor 55 (Q9Y2T6 whole entry): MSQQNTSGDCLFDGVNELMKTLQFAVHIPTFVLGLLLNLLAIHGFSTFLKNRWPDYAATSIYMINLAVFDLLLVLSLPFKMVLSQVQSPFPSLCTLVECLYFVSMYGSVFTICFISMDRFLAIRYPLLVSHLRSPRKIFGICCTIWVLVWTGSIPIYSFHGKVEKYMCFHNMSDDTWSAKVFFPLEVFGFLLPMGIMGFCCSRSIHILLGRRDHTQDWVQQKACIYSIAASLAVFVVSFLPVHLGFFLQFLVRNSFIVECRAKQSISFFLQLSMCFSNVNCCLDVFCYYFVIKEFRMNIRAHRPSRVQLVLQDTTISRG
Chain of Type-1 angiotensin II receptor (P30556 whole entry, the tested form may be a part): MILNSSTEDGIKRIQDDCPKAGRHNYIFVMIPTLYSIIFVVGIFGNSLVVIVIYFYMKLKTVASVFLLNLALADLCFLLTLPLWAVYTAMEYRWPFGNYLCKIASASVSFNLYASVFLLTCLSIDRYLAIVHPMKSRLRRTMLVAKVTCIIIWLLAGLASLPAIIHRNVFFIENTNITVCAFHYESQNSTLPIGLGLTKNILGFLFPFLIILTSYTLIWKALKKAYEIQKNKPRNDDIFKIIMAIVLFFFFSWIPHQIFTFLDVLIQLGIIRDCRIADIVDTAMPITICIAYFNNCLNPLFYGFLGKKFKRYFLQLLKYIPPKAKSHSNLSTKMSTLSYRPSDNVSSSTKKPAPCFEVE

With `CCN(CC)CCNC(=O)c1ccc(NC(=O)c2cc(-c3ccco3)nc3ccccc23)cc1`, the EC50 in [1] is > 100 µM (inactive).

In the case of `CCN(CC)S(=O)(=O)c1ccc(NC(=O)c2cc(-c3cccs3)nc3ccccc23)cc1`, the EC50 (on Cannabinoid receptor 1 [2]; in assay [4]; on Cannabinoid receptor 2 [5]) was > 32 µM (inactive) throughout. In addition, the IC50 in assay [3] was > 32 µM (inactive); in assay [6] it was > 32 µM (inactive); at Cannabinoid receptor 1 [7], 427 nM (active); on Cannabinoid receptor 2 [8], > 32 µM (inactive).

As for `COc1ccc(N(CC(=O)Nc2cc(Cl)ccc2OC)S(=O)(=O)c2c(C)noc2C)cc1`, the EC50 in [9] is > 120 µM (not active); in assay [10], 3.56 µM (active); in [11], 21.5 µM (inconclusive); in [12], 4.39 µM (active); in assay [13], 4.39 µM (inconclusive); in assay [14], 3.56 µM (inconclusive). In addition, the EC50 is 5.82 µM (active) in [15], 106 µM (active) in assay [16] and 21.5 µM (active) in assay [17].

(Values after ChEMBL document CHEMBL1201862, “PubChem BioAssay data set” (2004).)
